Source: PMC5413018, “Neuropeptide S (NPS) variants modify the signaling and risk effects of NPS Receptor 1 (NPSR1) variants in asthma” (PLoS ONE, 2017)
Substitutions are numbered along the chain they refer to. Residues, ends and D or L forms follow the SMILES beside them.

Legend:
[1] = target: T1, NPSR1-Asn(107) (Homo sapiens, UniProt Q6W5P4); test: CRE-dependent luciferase activity, NPSR1-Asn(107); type: cell-based; conditions: HEK293 transiently transfected with NPSR1-Asn(107); NPS 10 pM-100 μM, 3 h; three experiments in triplicates; mean ± SE; Val(6) vs Leu(6) p = 0.03; read-out: pEC50 for CRE-dependent luciferase activity (converted)
T1 construct: expressed in transfected cells; host or cells: HEK293
T1 sequence (Q6W5P4 1-371): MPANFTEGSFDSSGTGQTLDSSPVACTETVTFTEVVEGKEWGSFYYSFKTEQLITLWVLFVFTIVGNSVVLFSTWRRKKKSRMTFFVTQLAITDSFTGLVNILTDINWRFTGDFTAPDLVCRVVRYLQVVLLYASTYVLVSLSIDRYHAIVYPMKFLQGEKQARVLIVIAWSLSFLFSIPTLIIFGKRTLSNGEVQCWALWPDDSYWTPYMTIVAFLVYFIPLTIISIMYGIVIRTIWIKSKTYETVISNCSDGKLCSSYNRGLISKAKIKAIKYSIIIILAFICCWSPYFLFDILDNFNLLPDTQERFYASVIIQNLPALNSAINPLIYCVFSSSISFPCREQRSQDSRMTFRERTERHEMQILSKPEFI
Description: (§1) To compare the bioactivities of the two NPS variants, we measured the dose-responses of NPSR1-Ile(107) and NPSR1-Asn(107) coding variants to either wildtype NPS-Val(6) or alternative NPS-Leu(6) in a luciferase assay dependent on the activation of a cAMP-response element (CRE). This assay was used since elevation of the intracellular cAMP levels activates cAMP response element binding protein (CREB) via […]. Activated CREB binds to CRE and induces the expression of downstream target genes of the cAMP/PKA signaling pathway. Because of the low endogenous expression levels of NPSR1 in majority of the available cell lines, we first used HEK293 cells with forced NPSR1 expression as a model for ligand-receptor interactions. […] Firefly and Renilla luciferase activity was measured 3 h after stimulation with serial dilutions of NPS (10 pM-100 μM). […]
(§2) Human embryonic kidney cells (HEK293) were cultured in MEM+GlutaMAX-1 medium (Gibco/Invitrogen) supplemented with 10% fetal calf serum (FCS) (Biosera), 1% sodium pyruvate, 1% non-essential amino acids and 1% penicillin/streptomycin (Gibco/Invitrogen). […] The HEK293 cell line was chosen for ligand-receptor studies because it is a well-established model for addressing numerous questions in basic biology and is easy to transfect and amenable of stringent quantitative assessment. […]

[2] = target: T2, NPSR1-Ile(107) (Homo sapiens, UniProt Q6W5P4, N107I); test: CRE-dependent luciferase activity, NPSR1-Ile(107); type: cell-based; design: expressed in transfected cells; host or cells: HEK293; conditions: HEK293 transiently transfected with NPSR1-Ile(107); NPS 10 pM-100 μM, 3 h; three experiments in triplicates; mean ± SE; Val(6) vs Leu(6) p = 0.004; read-out: pEC50 for CRE-dependent luciferase activity (converted)
T2 sequence (Q6W5P4 1-371 N107I): T1 sequence (Q6W5P4 1-371) with N107I
Description: as §1, §2

Row | EC50 [1] [µM] | EC50 [2] [µM] | Compound
1 | 0.794 | 0.00398 | CSCC[C@H](NC(=O)CNC(=O)[C@@H](NC(=O)CNC(=O)[C@@H](NC(=O)CNC(=O)[C@H](CC(N)=O)NC(=O)[C@H](CCCNC(=N)N)NC(=O)[C@H](Cc1ccccc1)NC(=O)[C@@H](N)CO)C(C)C)[C@@H](C)O)C(=O)N[C@@H](CCCCN)C(=O)N[C@@H](CCCCN)C(=O)N[C@H](C(=O)N[C@@H](CO)C(=O)N[C@@H](Cc1ccccc1)C(=O)N[C@@H](CCC(N)=O)C(=O)N[C@@H](CCCNC(=N)N)C(=O)N[C@@H](C)C(=O)N[C@@H](CCCCN)C(=O)N[C@@H](CO)C(=O)O)[C@@H](C)O [NPS-Val(6)] (H-SFRNGVGTGMKKTSFQRAKS-OH)
2 | 12.6 | 0.2 | CSCC[C@H](NC(=O)CNC(=O)[C@@H](NC(=O)CNC(=O)[C@H](CC(C)C)NC(=O)CNC(=O)[C@H](CC(N)=O)NC(=O)[C@H](CCCNC(=N)N)NC(=O)[C@H](Cc1ccccc1)NC(=O)[C@@H](N)CO)[C@@H](C)O)C(=O)N[C@@H](CCCCN)C(=O)N[C@@H](CCCCN)C(=O)N[C@H](C(=O)N[C@@H](CO)C(=O)N[C@@H](Cc1ccccc1)C(=O)N[C@@H](CCC(N)=O)C(=O)N[C@@H](CCCNC(=N)N)C(=O)N[C@@H](C)C(=O)N[C@@H](CCCCN)C(=O)N[C@@H](CO)C(=O)O)[C@@H](C)O [NPS-Leu(6)] (H-SFRNGLGTGMKKTSFQRAKS-OH)
